Experimental data as given in patent publication US20120142672A1, “HETEROCYCLIC COMPOUND AND USE THEREOF” (priority 2009, published 2012).

tested on: Aβ42 production; assay: Measurement of amyloid β production inhibition rate using primary nerve cell; assay type: cell-based; conditions: Rattus norvegicus, 72 h, primary nerve cells from cerebral cortex of SD rat fetus; cultured 3 days with compound; sandwich ELISA BNT77-BC05 of culture supernatant; read-out: Aβ42 production inhibitory activity IC50
Protocol: (1) Measurement of Amyloid β Production Inhibition Rate Using Primary Nerve Cell
The primary nerve cells were collected from the cerebral cortex of rat fetus (CLEA Japan, Inc.: SD rat, fetal life 17 days of age), and suspended in a neurobasal medium containing B27 supplement, L-glutamine, penicillin-streptomycin (manufactured by Invitrogen) at 500,000 cells/mL. Then, the suspension was seeded in poly L-lysine-coated 96 well plate (manufactured by SUMITOMO BAKELITE) by 100 μL, and cultured at 37° C., 5% CO2 for 7 days. The medium was completely removed, and a new neurobasal medium was added at 75 μL/well. Thereto was added (75 μL/well) a neurobasal medium supplemented with a 2-fold measurement concentration of an evaluation target compound, and the cells were cultured for 3 days. The culture supernatant was collected from each well, diluted as appropriate, applied to sandwich ELISA between BNT77 antibody-BA27 antibody (for Aβ40) and sandwich ELISA between BNT77 antibody-BC05 antibody (for Aβ42), and the amounts of Aβ40 and Aβ42 were measured.
The amyloid β production inhibition rate (%) of the compound was calculated by the following formula.
(1−(amyloid β production amount with addition of compound)/(amyloid β production amount without addition of compound))×100

**Q.** For COc1cc(-c2nnc3n2CCCC3c2ccc(F)cc2C(F)(F)F)ccc1-c1cnc(C)o1 (centres unmarked) [Example 28, 8-[4-fluoro-2-(trifluoromethyl)phenyl]-3-[3-methoxy-4-(2-methyl-1,3-oxazol-5-yl)phenyl]-5,6,7,8-tetrahydro[1,2,4]triazolo[4,3-a]pyridine], which IC50 is on record?
**A.** 200 nM

**Q.** How did the IC50 turn out when COc1cc(-c2nnc3n2CCCC3Oc2ccc(Cl)c(Cl)c2)ccc1-c1cnc(C)o1 (centres unmarked) [Example 25, 8-(3,4-dichlorophenoxy)-3-[3-methoxy-4-(2-methyl-1,3-oxazol-5-yl)phenyl]-5,6,7,8-tetrahydro[1,2,4]triazolo[4,3-a]pyridine] was run?
**A.** 88 nM

**Q.** How did the IC50 turn out when COc1cc(-c2nnc3n2CCC[C@@H]3c2ccc(Cl)cc2C(F)(F)F)ccc1-c1cnc(C)o1 [Example 34, (R)-(+)-8-[4-chloro-2-(trifluoromethyl)phenyl]-3-[3-methoxy-4-(2-methyl-1,3-oxazol-5-yl)phenyl]-5,6,7,8-tetrahydro[1,2,4]triazolo[4,3-a]pyridine] was run?
**A.** 42 nM

**Q.** Which IC50 does the source give for COc1cc(-c2nc3n(n2)CCCC3c2ccccc2C(F)(F)F)ccc1-c1cnc(C)o1 (centres unmarked) [Example 12, 2-[3-methoxy-4-(2-methyl-1,3-oxazol-5-yl)phenyl]-8-[2-(trifluoromethyl)phenyl]-5,6,7,8-tetrahydro[1,2,4]triazolo[1,5-a]pyridine] here?
**A.** 150 nM

**Q.** For COc1cc(-c2nnc3n2CCCCC3c2ccc(Cl)c(Cl)c2)ccc1-c1cnc(C)o1 (centres unmarked) [Example 15, 9-(3,4-dichlorophenyl)-3-[3-methoxy-4-(2-methyl-1,3-oxazol-5-yl)phenyl]-6,7,8,9-tetrahydro-5H-[1,2,4]triazolo[4,3-a]azepine], which IC50 is on record?
**A.** 170 nM

**Q.** For COc1cc(-c2nnc3n2CCCC3c2ccccc2C(F)(F)F)ccc1-c1cnc(C)o1 (centres unmarked) [Example 8, 3-[3-methoxy-4-(2-methyl-1,3-oxazol-5-yl)phenyl]-8-[2-(trifluoromethyl)phenyl]-5,6,7,8-tetrahydro[1,2,4]triazolo[4,3-a]pyridine], which IC50 is on record?
**A.** 88 nM

same assay, conditions: primary nerve cells from cerebral cortex of SD rat fetus; cultured 3 days with compound; sandwich ELISA BNT77-BC05 of culture supernatant; read-out: Aβ42 production inhibitory activity IC50

**Q.** Which IC50 does the source give for COc1cc(-c2nnc3n2CCCC3c2ccc(Cl)c(Cl)c2)ccc1-c1cnc(C)o1 (centres unmarked) [Example 1, 8-(3,4-dichlorophenyl)-3-[3-methoxy-4-(2-methyl-1,3-oxazol-5-yl)phenyl]-5,6,7,8-tetrahydro[1,2,4]triazolo[4,3-a]pyridine] here?
**A.** 90 nM

**Q.** COc1cc(-c2nnc3n2CCCC3c2ccc(Cl)c(Cl)c2)ccc1-c1cnc(C)o1 (single isomer, unassigned; (+)) [Example 2, (+)-8-(3,4-dichlorophenyl)-3-[3-methoxy-4-(2-methyl-1,3-oxazol-5-yl)phenyl]-5,6,7,8-tetrahydro[1,2,4]triazolo[4,3-a]pyridine] was tested. Which IC50 did it give?
**A.** 34 nM
